Laboratory results published in patent US11998008B2, “Pesticides and methods of controlling pests” (The State of Israel, Ministry of Agriculture & Rural …, priority 2017, dated 2024).

How the values were obtained:
Meloidogyne javanica J2s = experiment: Greenhouse nematocidal experiment with susceptible tomato plants in inoculated loam; format: in vivo; details: tomato harvested after 8 weeks
Description: The activity of trans-2-octenal against nematodes was examined in a greenhouse experiment using stage 2 juveniles of the rot-knot nematode Meloidogyne javanica. […] After 2 days, the inoculated soil was treated with 30 ppm of trans-2-octenal and incubated for additional 5 days. Then, susceptible tomato plants were planted, and allowed to grow in a growing chamber for 8 weeks. At the end of the experiment, the plants, along with their root systems, were harvested from their pots and evaluated for incidence of root galling. In addition, M. javanica eggs were extracted from each root and counted, and the number of eggs per gram root was calculated. As shown in FIGS. 14A-14D, trans-2-octenal reduced the galling index and the number of eggs per gram root. […] The activity of 2-cyclohexen-1-one against nematodes was examined in a greenhouse experiment using stage 2 juveniles of the rot-knot nematode Meloidogyne javanica. The experiment was performed as described for trans-2-octenal. […] After 2 days, the inoculated soil was treated with 15 or 31 ppm of 2-cyclohexen-1-one and incubated for additional 5 days. Then, susceptible tomato plants were planted, and allowed to grow in a growing chamber for 8 weeks. At the end of the experiment, the plants, along with their root systems, were harvested from their pots and evaluated for incidence of root galling. In addition, M. javanica eggs were extracted from each root and counted, and the number of eggs per gram root was calculated.

tomato strain Ikram = details: in vivo, 3 days
Description: (§2) An experiment in a larger scale was performed in loam soil in which the seedling were planted directly in the treated plot. The soil was treated with 0, 25, 50, 100, 200, 400, 800, and 1,600 ppm of emulsion of trans-2-octenal. The compound was applied using the irrigation system. A day later, tomato seedling strains Ikram and Abigail and lettuce seedling strain Raviv (10 seedlings each) were planted into the treated soil of each concentration. Eleven days later, the number of viable seedlings was counted.

tomato strain Kilates = details: in vivo, 3 days
Description: The soil was treated with 0, 400 and 800 ppm of emulsion of 2-cyclohexene-1-one. The compound was applied using the irrigation system. A day later, tomato seedling strains Ikram, and Kilates and lettuce seedling strain Raviv (10 seedlings each) were planted into the treated soil of each concentration. Three (3) days later, the number of seedlings was counted.

R. solani = experiment: microbe, parasite or virus in culture; format: cell-based; details: Rhizoctonia solani, read-out: M - Mortality, minimal concentration that killed the fungus
Description: (§1) Each compound was placed on a disconnected cover from an Eppendorf tube that was located in the middle of the Petri dish and a hyphae-containing plug of each test fungus was added to the culture plate. In exemplary procedures, the tested compounds trans-2-heptenal, trans-2-octenal were tested in comparison with octanal, trans-2-octen-1-ol, methyl trans-2-octenoate, trans-3-octen-2-one and 3-pentenenitrile. In addition, cyclic ketones as 2-cyclopenten-1-one, 2-cyclohexen-1-one and α-tetralone were also examined. Then, the culture plate was sealed with parafilm and incubated at room-temperature for 2 days, after which the growth of the test fungi in those dishes was compared with those in the test compound-free control dishes. At the end of the assay, the viability of each test fungus was evaluated by transferring inoculum plugs to fresh PDA plates and observing the growth that developed within the next 2 days. The test fungi used in this study included but were not limited to Alternaria alternata, Botrytis cinerea, Sclerotinia rolfsii, Penicillium digitatum, Fusarium oxysporum f. sp. radicis-cucumerinum and Rhizoctonia solani.

[1] = tested on: lettuce seedling strain Raviv; details: in vivo, 3 days
Description: as §2

S. rolfsii = experiment: Fungicidal activity assay on PDA in sealed Petri dish (growth inhibition and mortality); format: cell-based, Sclerotinia rolfsii; details: Agroathelia rolfsii; S. rolfsii; NA + number = still viable in the highest concentration tested (given as >); read-out: M - Mortality, minimal concentration that killed the fungus
Description: as §1

[2] = tested on: tomato seedlings strain Ikram; experiment: Phytotoxic effect on tomato seedlings in pots of pretreated loam soil; format: in vivo; details: 9 days
Description: The phytotoxic effect of 2-cyclohexen-1-one in pots was examined on tomato seedlings strain Ikram. Pots (9-10 repetitions) were filled with 500 g of loam soil pretreated with 2-cyclohexen-1-one at final concentration of 0, 50, and 60 ppm. Then, tomato seedling was planted in each pot and allowed to grow for 9 days. The phytotoxic effect was evaluated by counting the number of live seedling and measuring their heights.

peanut seeds = experiment: Phytotoxic effect on peanut seeds in pots of loam soil; format: in vivo; details: 16 days; for Number of germinated seeds: 9 seeds sown
Excerpt: The phytotoxic effect of 2-cyclohexen-1-one was also examined on peanut seeds. The concentrations tested were: 0, 10, 20, and 40 ppm, 3 pots for each concentration. After mixing the loam soil with 2-cyclohexne-1-one, three peanut seeds were sown in each pot and let to grow for 16 days.

[3] = tested on: F. oxysporum f. sp. radicis-cucumerium; experiment: Fungicidal activity assay on PDA in sealed Petri dish (growth inhibition and mortality); format: cell-based, Fusarium oxysporum f. sp. radicis-cucumerinum; details: Fusarium oxysporum, NA + number = still viable in the highest concentration tested (given as >), read-out: M - Mortality, minimal concentration that killed the fungus
Description: as §1

test fungi = experiment: Fungicidal activity assay on PDA, summaries over the test fungi; format: cell-based; details: comparison within the series
Description: as §1, with “In exemplary procedures, the fungicidial activity of the compounds listed in Table 2 were examined by activity assays as follow: Petri dishes, 90 mm in diameter, with air volume of 80 mL, contained 10-12 mL of growth medium comprising potato dextrose agar (PDA) (Acumedia, Lansing, Michigan, USA) amended with tetracycline at 12 μg/mL. Each” for “Each”

For `O=C1C=CCCC1` [2-cyclohexen-1-one], which “concentration sufficient to reduce the galling index and the number of eggs per gram root” value (Meloidogyne javanica J2s) is on record?
Its value is 15 ppm.

What about the “concentration at which phytotoxic effect occurred” value (tomato strain Ikram) of the same compound?
The value was 400 ppm.

What about the “concentration at which phytotoxic effect occurred” value (tomato strain Kilates) of the same compound?
Its value is 400 ppm.

And the MFC (R. solani)?
The MFC was greater than 25 µg/mL.

And the “concentration at which phytotoxic effect was displayed” value [1]?
Its value is 800 ppm.

And the MFC (S. rolfsii)?
The MFC was greater than 25 µg/mL.

What about the “% Viability” value ([2]; 50 ppm) of the same compound?
Its value is 100%.

And the “Seedling height (Mean ± SD)” value ([2]; 50 ppm)?
The value was 21 ± 3 cm.

What about the “% Viability” value ([2]; 60 ppm) of the same compound?
The value was 67%.

What about the “Seedling height (Mean ± SD)” value ([2]; 60 ppm) of the same compound?
The value was 16 ± 2 cm.

And the “concentration at which phytotoxic effect was obtained” value ([2]; of 0, 50 and 60 ppm tested)?
Its value is 60 ppm.

And the “% Viability” value (peanut seeds; 10 ppm)?
Its value is 89%.

What about the “Number of germinated seeds” value (peanut seeds; 10 ppm) of the same compound?
Its value is 8.

And the “% Viability” value (peanut seeds; 20 ppm)?
The value was 100%.

What about the “Number of germinated seeds” value (peanut seeds; 20 ppm) of the same compound?
The value was 9.

And the “% Viability” value (peanut seeds; 40 ppm)?
The value was 89%.

What about the “Number of germinated seeds” value (peanut seeds; 40 ppm) of the same compound?
The value was 8.

What about the MFC [3] of the same compound?
The MFC was greater than 25 µg/mL.

And the “fungicidal activity in words” value (test fungi)?
Its value is “fungicidal activity, to some extent”.
